Experimental findings from US5281581A, “Treatment of insulin resistance” (Amylin Pharmaceuticals, Inc., priority 1992, dated 1994) are described below.

The assay concerns rat islets of Langerhans. Kind of assay: glucose-stimulated insulin secretion by isolated islets of Langerhans. The class given is cell-based. The settings on record: glucose 10 mmol/L. On the procedure: All experiments were performed by known methods used in experimental practice. See, e.g., Lacey P. E., and Kostianovsky M, Method for the isolation of intact islets of Langerhans from the rat pancreas. Diabetes 1967; 16: 35-39.
Briefly, rats were killed, and islets of Langerhans were isolated from their pancreases. Experiments were performed either with freshly isolated islets or after overnight incubation of islets (23 h) in standard culture medium and conditions at 37° C. […] Incubation of islets for these experiments was carried out in standard Krebs-Heinsleit buffer, and it was verified that the addition of the 1.0 mmol/L citrate buffer had no effect on the pH of the incubation medium. Stimulation of islets was carried out at the standard stimulatory glucose concentration of 10 mmol/L.
Production of insulin is expressed as μU/islet/h. All experiments were performed with five replicates per point. The integrity of the islet response was assessed by comparing the responses after stimulation of different aliquots of islets by two and ten mmol/L glucose, respectively, and the strength of the inhibitory response was judged against that induced by 1 μg/ml (650 nmol/L) somatostatin. […] See Arimura A. Biomed res 1981; 2: 233-257. […] See Petterson M., Ahren B., Bottcher G., Sundler F., Endocrinology 1986; 119: 865-869.
The results are shown in TABLE 5 below and all results are expressed as ± standard error of the mean (s.e.m.). The significance of differences between the means of groups is assessed by the t-test. The result of stimulation by 10 mmol/L glucose is compared with the results of stimulation at 2 mmol/L glucose. In all other experimental conditions, the significance of the inhibitory effect is measured against the effect of 10 mmol/L glucose alone.

For `C[C@H](N)C(=O)NCC(=O)N[C@H]1CSSC[C@@H](C(=O)O)NC(=O)[C@H](CO)NC(=O)[C@H]([C@@H](C)O)NC(=O)[C@H](Cc2ccccc2)NC(=O)[C@H]([C@@H](C)O)NC(=O)[C@H](CCCCN)NC(=O)[C@H](Cc2c[nH]c3ccccc23)NC(=O)[C@H](Cc2ccccc2)NC(=O)[C@H](Cc2ccccc2)NC(=O)[C@H](CC(N)=O)NC(=O)[C@H](CCCCN)NC1=O` [Somatostatin, reference compound], where the note is “substance 650 nmol/L”, the “INSULIN PRODUCTION Mean Value” was determined as 44 μU/islet/hr and the “RELATIVE INSULIN SECRETION INHIBITION” value is 45%.

For the molecule CGRP 27-37, the “INSULIN PRODUCTION Mean Value” is on record as 36 μU/islet/hr (substance 10 nmol/L), 36 μU/islet/hr (substance 100 nmol/L) and 46 μU/islet/hr (substance 1000 nmol/L). Also, the “RELATIVE INSULIN SECRETION INHIBITION” value (substance 10 nmol/L) is 55%, the “RELATIVE INSULIN SECRETION INHIBITION” value (substance 100 nmol/L) is given as 55% and the “RELATIVE INSULIN SECRETION INHIBITION” value (substance 1000 nmol/L) stood at 42%.
